Data set [1] concerns panel of 20 patient derived cell cultures. The experiment in a line: DBD combination treatment, overall result over the panel. Format: cell-based, human. How it is done: Crystalline DBD polymorph treatment was combined with chemotherapy, radiotherapy and targeted inhibitors to determine whether the crystalline DBD polymorph form could: enhance efficacy of the conventional therapies; enhance efficacy when combined with newer ‘targeted’ therapies; or would make (a subset of) cultures more sensitive to this treatment.
Therefore, cultures were treated with: • a.

Data set [2] relates to GS203. Description: DBD dose-response IC50, patient derived GSC culture. Format: cell-based. The conditions noted are these: Homo sapiens. How it is done: (§1) To assess the effects of crystalline DBD polymorph on the growth of patient derived GSC's (Glioma serum-free Stem-cell like cultures), dose-response assays were performed on twenty cultures. […] A dose-dependent decrease in viability was found, and the IC50 values of could be calculated using linear regression analysis. Specifically, looking at Table 1, a high variation of different IC50 values is seen in this panel of patient derived GSC's. In addition, no correlation is seen between the MGMT promotor methylation status and the amount of the IC50 value.

Data set [3] concerns GS186peri. The data set is described as above. Format: cell-based. Particulars: Homo sapiens. As to the method:
as §1

Data set [4] relates to GS102peri. The data set is described as above. The conditions noted are these: Homo sapiens. Format: cell-based. How it is done: as §1
Data set [5] deals with GS249. Described as above. Format: cell-based. Particulars: Homo sapiens. As to the method: as §1
The test system of data set [6] is GS104peri. Described as above. Format: cell-based. Particulars: Homo sapiens. As to the method:
as §1

For data set [7], the system named is GS281. The data set is described as above. Format: cell-based. Particulars: Homo sapiens. How it is done:
as §1

The subject of data set [8] is GS261. The data set is described as above. Format: cell-based. Particulars: Homo sapiens. As to the method:
as §1

Data set [9] has as its system GS186core. Described as above. Format: cell-based. The conditions noted are these: Homo sapiens. As to the method: as §1
Data set [10] relates to GS257. The data set is described as above. Particulars: Homo sapiens. Format: cell-based. How it is done:
as §1

In data set [11] the test system is GS279core. The data set is described as above. Format: cell-based. The conditions noted are these: Homo sapiens, 120 h, read-out: IC50 5 d. How it is done:
as §1

Data set [12] relates to GS359. The data set is described as above. Particulars: Homo sapiens. Format: cell-based. How it is done: as §1
For data set [13], the system named is GS289. The data set is described as above. Format: cell-based. Particulars: Homo sapiens. How it is done: as §1
In data set [14] the test system is GS279peri. Described as above. Particulars: Homo sapiens. Format: cell-based. As to the method:
as §1

Data set [15] concerns GS365. The data set is described as above. Format: cell-based. Particulars: Homo sapiens. How it is done: as §1
Data set [16] relates to GS245. The description is as above. Format: cell-based. The conditions noted are these: Homo sapiens. How it is done:
as §1

Data set [17] relates to GS323peri. Described as above. The conditions noted are these: Homo sapiens, 120 h, passage 17, day 5, read-out: IC50 5 d. Format: cell-based. As to the method: as §1
In data set [18] the test system is GS324core. The description is as above. The conditions noted are these: Homo sapiens. Format: cell-based. How it is done: as §1
The test system of data set [19] is GS224. Described as above. Format: cell-based. Particulars: Homo sapiens. How it is done:
as §1

Data set [20] deals with GS304. The data set is described as above. Format: cell-based. Particulars: Homo sapiens. As to the method: as §1
Data set [21] relates to GS184. The description is as above. Format: cell-based. The conditions noted are these: Homo sapiens. As to the method:
as §1

The conditions of data set [22]: reported in the literature; cited from earlier work.
Data set [23] relates to T98 glioma cell line. The experiment in a line: Cell Titer-Glo viability, DBD concentration range. Format: cell-based, human. The conditions noted are these: 5 and 8 days. As to the method:
(§2) These lines were seeded in triplicate in a 96-wells plate, in a dilution of 500 cells/well. […] FIGS. 1 and 2 show the histogram results of the two used glioma cell lines, T98 and U373. Specifically, the histograms are normalized in percentages, where the non-treated cells have a 100% survival. […] However, a concentration range between 1 and 100 μM was selected and was next tested on twenty patient-derived serum-free cell cultures.
(Cellular ATP, detected with luciferase, serves as a proxy for viable cell number.)

Data set [24] concerns U373 glioma cell line. Description: Cell Titer-Glo viability, DBD concentration range. Format: cell-based, human. Particulars: 5 and 8 days. As to the method:
as §2

The conditions of data set [25]: Kellner et al., Nature (1967); cited from earlier work.
Setting [26] is: 120 h, passage 14, day 5, read-out: IC50 5 d.
[27] abbreviates: passage 14, day 8, read-out: IC50 8 d.

Entries after “also recorded” stand apart in the source; their conditions may differ. Like-named read-outs stand apart in the source and are kept apart here.

One may read the IC50 as the point on the concentration scale where inhibition reaches its midpoint.

On to `Cc1ccc(NC(=O)c2ccc(CN3CCN(C)CC3)cc2)cc1Nc1nccc(-c2cccnc2)n1` [Imatinib], for which the “enhancement factors overall, in combination with DBD” value in [1] (Tables 2 and 3, day 5 and day 8, all cultures) was “highest enhancement factors; also recorded: high enhancement factor, most cases”.
As to `O[C@H]([C@H](O)[C@@H](O)CBr)[C@H](O)CBr` [DBD, 1,6-dibromo-1,6-dideoxy-dulcitol], the figures for the “enhancement of the cytotoxic effect” value in [1] (combined with radiation treatment) and in data set [1] (combined with temozolomide) were 30% and 50%, respectively. The IC50 in data set [2] (120 h, GS203, passage 20, day 5, read-out: IC50 5 d) stood at 28.7 µM; in data set [2] (GS203, passage 20, day 8, read-out: IC50 8 d), 10.5 µM; in [3] (setting [26]), 4.24 µM; in data set [3] (setting [27]), 2.28 µM; in data set [4] (120 h, passage 18, day 5, read-out: IC50 5 d), 41.8 µM; in [4] (passage 18, day 8, read-out: IC50 8 d), 11.9 µM. For the same compound, the IC50 in [5] (120 h, GS249, passage 18, day 5, read-out: IC50 5 d) amounted to 0.63 µM; in [5] (GS249, passage 18, day 8, read-out: IC50 8 d), 0.24 µM; in data set [6] (120 h, passage 22, day 5, read-out: IC50 5 d), 3.48 µM; in data set [6] (passage 22, day 8, read-out: IC50 8 d) it was 0.57 µM; in data set [7] (120 h, GS281, passage 13, day 5, read-out: IC50 5 d) it was 10.6 µM; in data set [7] (GS281, passage 13, day 8, read-out: IC50 8 d), 5.55 µM. The IC50 in data set [8] (120 h, GS261, passage 11, day 5, read-out: IC50 5 d) was 3.44 µM; in data set [8] (GS261, passage 11, day 8, read-out: IC50 8 d) it was 1.85 µM; in data set [9] (setting [26]) it was 4.56 µM; in data set [9] (setting [27]), 1.94 µM; in data set [10] (120 h, GS257, passage 13, day 5, read-out: IC50 5 d) it was 11.9 µM; in [10] (GS257, passage 13, day 8, read-out: IC50 8 d) it was 10.2 µM. Besides, the IC50 in data set [11] (GS279core (1), passage 13, day 5) stood at 3.6 µM; in [11] (GS279core (2), passage 16, day 5) it was 7.64 µM; in data set [12] (120 h, GS359, passage 14, day 5, read-out: IC50 5 d) it was 11.8 µM; in data set [12] (GS359, passage 14, day 8, read-out: IC50 8 d), 7.27 µM; in data set [13] (120 h, GS289, passage 13, day 5, read-out: IC50 5 d), 6.88 µM; in data set [13] (GS289, passage 13, day 8, read-out: IC50 8 d), 3.22 µM. Besides, the IC50 in data set [14] (120 h, passage 13, day 5, read-out: IC50 5 d) turned out to be 31.5 µM; in [14] (passage 13, day 8, read-out: IC50 8 d) it was 8.33 µM; in data set [15] (120 h, GS365, passage 14, day 5, read-out: IC50 5 d), 14.6 µM; in data set [15] (GS365, passage 14, day 8, read-out: IC50 8 d), 5.69 µM; in data set [16] (120 h, GS245, passage 13, day 5, read-out: IC50 5 d) it was 6.58 µM; in data set [16] (GS245, passage 13, day 8, read-out: IC50 8 d), 3.35 µM. In addition, the IC50 is 4.75 µM in data set [17]; 8.96 µM in [18] (120 h, passage 16, day 5, read-out: IC50 5 d); 2.98 µM in [18] (passage 16, day 8, read-out: IC50 8 d); 33.3 µM in [19] (120 h, GS224, passage 17, day 5, read-out: IC50 5 d); 10.9 µM in data set [19] (GS224, passage 17, day 8, read-out: IC50 8 d); 106 µM in data set [20] (120 h, GS304, passage 14, day 5, read-out: IC50 5 d). Moreover, the IC50 was 12.2 µM in [20] (GS304, passage 14, day 8, read-out: IC50 8 d); 18.6 µM in data set [21] (120 h, GS184, passage 15, day 5, read-out: IC50 5 d); 1.96 µM in data set [21] (GS184, passage 15, day 8, read-out: IC50 8 d). The solubility entry in data set [22] is recorded as “poorly soluble”. In addition, the “effect on cell viability (percentage of living cells vs non-treated)” value is “not effective” in data set [23] (0.1 μM and 0.3 μM DBD); “not viable” in data set [23] (300 μM DBD); “not effective” in data set [24] (0.1 μM and 0.3 μM DBD); “not viable” in [24] (300 μM DBD). For the same compound, the antitumor effect entry in data set [25] was “selective a vigorous antitumor effect”.

(Values after patent publication US20220142941A1, “COMBINATION THERAPEUTIC REGIMENS WITH 1,6-DIBROMO-1,6-DIDEOXY-DULCITOL” (Eleison Pharmaceuticals LLC, priority 2019, published 2022).)
